Among the data in ChEMBL document CHEMBL1149968, “Synthesis and in vitro cytotoxicity of cis-dichloro[(2S,3R,4S)-2-aminomethyl-3,4-(O-isopropylidene)dihydroxy- or -3,4-dihydroxypyrrolidine]platinum(II)” (Bioorg Med Chem Lett, 1996) are IC50 and Relative resistance values, retold here.

In one assay the test system is XF498. The assay is described as follows: In vitro cytotoxicity against CNS cancer XF 498 cell lines. It counts as functional, cell-based, Homo sapiens.
Assay [1] relates to L1210. The assay is described as follows: In vitro cytotoxicity against Cisplatin sensitive L1210/parent leukemia cell lines. Type of assay: functional, cell-based, Mus musculus.
The subject of another assay is SK-OV-3. The assay is described as follows: In vitro cytotoxicity against ovarian cancer SK-OV-3 cell lines. Type of assay: functional, cell-based, Homo sapiens.
For assay [2], the system named is L1210. Kind of assay: In vitro cytotoxicity against Cisplatin resistant L1210/CPR leukemia cell lines. Type of assay: functional, cell-based, Mus musculus.
In another assay the test system is A549. The assay is described as follows: In vitro cytotoxicity against lung cancer A 549 cell lines. Type of assay: functional, cell-based, Homo sapiens.
Assay [3] can be described thus: Relative resistance calculated as the ratio of IC50 of resistant sublime to that of IC50 of parent cell line. Type of assay: functional.

In general, IC50 refers to the midpoint of a concentration-inhibition curve.

For CARBOPLATIN [listing 1 of 2 here], the IC50 in the assay on XF498 stood at 13.6 µM; in the assay on L1210 [1], 2 µM; in the assay with SK-OV-3 it was 13.9 µM; with L1210 [2] it was 45.3 µM; in the assay on A549, 37.7 µM.

Take CARBOPLATIN [listing 2 of 2 here]: the Relative resistance in assay [3] is 22.7.

With CISPLATIN [listing 1 of 2 here], the IC50 with XF498 is 2.9 µM; in the assay with L1210 [2], 3.4 µM; with A549, 3.2 µM.

For the substance CISPLATIN [listing 2 of 2 here], the Relative resistance in assay [3] is 34.

Consider “cis-Dichloro[(2S,3R,4S)-2-aminomethyl-3,4-(O-isopropylidene)dihydrxypyrrolidine]platinum (II) [listing 1 of 2 here]”, for which the concentration for half-maximal inhibition (IC50) in the assay on XF498 was found to be 6.2 µM; in the assay with L1210 [1], 0.3 µM; in the assay on SK-OV-3 it was 7.8 µM; in the assay with L1210 [2], 1.6 µM; with A549 it was 10.9 µM.

Regarding “cis-Dichloro[(2S,3R,4S)-2-aminomethyl-3,4-(O-isopropylidene)dihydrxypyrrolidine]platinum (II) [listing 2 of 2 here]”, in assay [3], the Relative resistance is 5.3.

As to “cis-Dichloro[(2S,3R,4S)-2-aminomethyl-3,4-dihydroxypyrrolidine]platinum (II) [listing 1 of 2 here]”, the concentration for half-maximal inhibition (IC50) in the assay on XF498 stood at 14.8 µM; with L1210 [1], 1.4 µM; with SK-OV-3, 15.4 µM; with L1210 [2], 10.9 µM; in the assay with A549, 32.5 µM.

Consider “cis-Dichloro[(2S,3R,4S)-2-aminomethyl-3,4-dihydroxypyrrolidine]platinum (II) [listing 2 of 2 here]”, for which, in assay [3], the Relative resistance is 7.8.
